In assay [1] the test system is Escherichia coli. Kind of assay: Antibacterial activity against Escherichia coli 25922 assessed as growth inhibition. The class given is functional.
In assay [2] the test system is Helicobacter pylori. Nature of the assay: Antibacterial activity against Helicobacter pylori 43504 assessed as growth inhibition. The class given is functional.
Assay [3] relates to Escherichia coli. Nature of the assay: Antibacterial activity against Escherichia coli JM019 assessed as growth inhibition. It counts as functional.
Assay [4] concerns Helicobacter pylori. Kind of assay: Antibacterial activity against Helicobacter pylori SS1 assessed as growth inhibition. It counts as functional.
Assay [5] has as its target T1, D-alanine--D-alanine ligase (Helicobacter pylori (strain HPAG1), UniProt Q1CTD3).
T1 sequence (Q1CTD3 whole entry): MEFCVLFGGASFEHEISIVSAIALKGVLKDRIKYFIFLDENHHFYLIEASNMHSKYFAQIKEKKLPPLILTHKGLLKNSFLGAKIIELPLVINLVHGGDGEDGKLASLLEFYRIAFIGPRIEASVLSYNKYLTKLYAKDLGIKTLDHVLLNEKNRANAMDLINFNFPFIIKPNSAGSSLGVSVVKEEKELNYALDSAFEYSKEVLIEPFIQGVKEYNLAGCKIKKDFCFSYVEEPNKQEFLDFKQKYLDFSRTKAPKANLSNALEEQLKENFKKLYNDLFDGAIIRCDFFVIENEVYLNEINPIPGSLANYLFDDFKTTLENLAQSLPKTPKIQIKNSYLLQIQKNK
Nature of the assay: Competitive inhibition of Helicobacter pylori Ddl using ATP as substrate.

For assay [6], the target named is D-alanine--D-alanine ligase B (Escherichia coli K-12, UniProt P07862). Kind of assay: Competitive inhibition of Escherichia coli DdlB using ATP as substrate.
Assay [7] deals with T1, D-alanine--D-alanine ligase. Kind of assay: Binding affinity to Helicobacter pylori Ddl by surface plasmon resonance biosensor technology.

In brackets after ≈: the same amount, converted by molar mass.

The term MIC denotes the least concentration at which growth counts as inhibited. What is called IC50 is the concentration that inhibits the measured activity by half. A word on the Ki: it is a dissociation constant, usually derived from enzyme kinetics or from competition with a known ligand. For the molecule `O=c1cc(-c2ccc(O)cc2)oc2cc(O)cc(O)c12` [APIGENIN], the MIC is above 200 µg/mL in assay [1], 25 µg/mL (≈ 92.5 µM) in assay [2], 200 µg/mL (≈ 740 µM) in assay [3] and 25 µg/mL (≈ 92.5 µM) in assay [4]. Further, the IC50 in assay [5] stood at 133 µM; in assay [6] it was 163 µM. For the same molecule, the inhibition constant Ki in assay [5] was 31 µM.
A word on the Kd: it is the constant that tells how readily two partners part at equilibrium. Read a low Kd as higher affinity. `O=c1c(O)c(-c2ccc(O)c(O)c2)oc2cc(O)cc(O)c12` [QUERCETIN] showed a Kd in assay [7] of 12.9 µM. The minimum inhibitory concentration (MIC) in assay [1] worked out at 300 µg/mL (≈ 993 µM); in assay [2], 100 µg/mL (≈ 331 µM); in assay [3], 300 µg/mL (≈ 993 µM); in assay [4] it was 200 µg/mL (≈ 662 µM). Also, the figures for the IC50 in assay [5] and in assay [6] were 48.5 µM and 19.9 µM, respectively. In assay [5], this molecule registered a Ki of 4.3 µM.
